Target: ROCK2 (Homo sapiens, UniProt O75116)
Assay: ROCK assay: phosphorylation of FITC peptide substrate, LABCHIP 3000 mobility shift
Format: biochemical
Conditions: 5 μM ATP, 1.5 μM peptide substrate; read-out: ROCK2 Activity (ROCK IC50 range)
Description: The effectiveness of compounds of the present invention as ROCK inhibitors can be determined in a 30 μL assay containing 20 mM HEPES, pH 7.5, 20 mM MgCl2, 0.015% Brij-35, 4 mM DTT, 5 μM ATP and 1.5 μM peptide substrate (FITC-AHA-AKRRRLSSLRA-OH). Compounds were dissolved in DMSO so that the final concentration of DMSO was <2%, and the reaction was initiated with Rho kinase variants. After incubation, the reaction was terminated by the addition of EDTA and the phosphorylated and non-phosphorylated peptides separated using a LABCHIP® 3000 Reader (Caliper Life Sciences). […] Compounds were tested in dose-response format, and the inhibition of kinase activity was calculated at each concentration of compound. The inhibition data were fit using a curve-fitting program to determine the IC50; i.e., the concentration of compound required to inhibit 50% of kinase activity.
Representative Examples were tested in the ROCK assay described above and found having ROCK inhibitory activity.

ROCK2, sequence (O75116 whole entry, species assumed): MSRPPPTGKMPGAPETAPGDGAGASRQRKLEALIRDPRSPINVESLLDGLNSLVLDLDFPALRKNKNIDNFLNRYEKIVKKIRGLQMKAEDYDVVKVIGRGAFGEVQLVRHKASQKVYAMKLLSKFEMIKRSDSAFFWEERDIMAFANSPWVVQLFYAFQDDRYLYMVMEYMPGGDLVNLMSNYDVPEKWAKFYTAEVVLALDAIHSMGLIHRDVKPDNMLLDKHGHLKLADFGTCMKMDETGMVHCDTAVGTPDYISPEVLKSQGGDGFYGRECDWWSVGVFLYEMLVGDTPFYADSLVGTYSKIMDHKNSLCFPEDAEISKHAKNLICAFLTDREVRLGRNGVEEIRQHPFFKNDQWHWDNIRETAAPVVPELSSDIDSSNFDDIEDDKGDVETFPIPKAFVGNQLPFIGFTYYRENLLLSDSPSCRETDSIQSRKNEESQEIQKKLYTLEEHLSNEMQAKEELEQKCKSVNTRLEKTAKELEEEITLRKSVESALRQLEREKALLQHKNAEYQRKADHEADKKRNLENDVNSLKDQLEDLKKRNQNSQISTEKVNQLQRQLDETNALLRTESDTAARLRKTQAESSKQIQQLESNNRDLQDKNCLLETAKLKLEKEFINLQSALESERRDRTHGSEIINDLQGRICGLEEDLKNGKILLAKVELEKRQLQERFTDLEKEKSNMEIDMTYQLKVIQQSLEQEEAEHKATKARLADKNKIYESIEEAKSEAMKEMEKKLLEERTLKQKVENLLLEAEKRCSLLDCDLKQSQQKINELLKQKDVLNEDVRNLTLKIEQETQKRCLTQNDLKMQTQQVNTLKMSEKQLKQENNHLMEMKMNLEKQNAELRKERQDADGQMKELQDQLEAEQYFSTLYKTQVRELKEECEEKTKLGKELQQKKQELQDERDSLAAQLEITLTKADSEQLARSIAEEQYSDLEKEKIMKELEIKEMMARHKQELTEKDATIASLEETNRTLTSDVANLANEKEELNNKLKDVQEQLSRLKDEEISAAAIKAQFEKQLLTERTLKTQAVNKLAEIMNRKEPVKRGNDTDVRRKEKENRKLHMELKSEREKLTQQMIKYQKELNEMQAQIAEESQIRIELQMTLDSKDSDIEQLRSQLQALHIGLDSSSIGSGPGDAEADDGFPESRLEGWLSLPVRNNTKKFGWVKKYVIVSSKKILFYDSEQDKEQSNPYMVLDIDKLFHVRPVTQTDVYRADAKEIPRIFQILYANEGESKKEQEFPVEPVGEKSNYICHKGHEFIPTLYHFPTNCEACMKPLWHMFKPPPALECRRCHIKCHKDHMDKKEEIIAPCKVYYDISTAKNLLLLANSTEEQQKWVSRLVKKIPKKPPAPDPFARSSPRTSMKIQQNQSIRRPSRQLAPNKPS

IC50 | SMILES
2.01 to 5 nM | Cn1nc(C(=O)N[C@H]2CC3(C2)C[C@H](c2n[nH]c(=O)c4ccccc42)C3)c2ccccc21 (single isomer, unassigned) [Example 14]
5.1 to 15 nM | O=C(N[C@H]1CC2(C1)C[C@H](c1n[nH]c(=O)c3ccccc31)C2)c1ccn(CC(F)(F)F)n1 (single isomer, unassigned) [Example 15]
2.01 to 5 nM | O=C(N[C@H]1CC2(C1)C[C@H](c1n[nH]c(=O)c3ccccc31)C2)c1ccn(CC(F)F)n1 (single isomer, unassigned) [Example 16]
100 to 2100 nM | Cn1nc(C(=O)N[C@H]2CC3(C2)C[C@H](c2n[nH]c(=O)c4ccccc42)C3)c2ccccc21 (single isomer, unassigned) [Example 17]
100 to 2100 nM | O=C(N[C@H]1CC2(C1)C[C@H](c1n[nH]c(=O)c3ccccc31)C2)c1ccn(CC(F)(F)F)n1 (single isomer, unassigned) [Example 18]
2.01 to 5 nM | CC(C)(O)Cn1nc(C(=O)NC2CC3(C2)CC(c2n[nH]c(=O)c4ccccc24)C3)c2ccccc21 (single isomer, unassigned) [Example 21]
100 to 2100 nM | O=C(NC1CC2(C1)CC(c1n[nH]c(=O)c3ccccc13)C2)C1Cc2ccccc2C1 (stereo not shown) [Example 1, N-[6-(4-oxo-3,4-dihydrophthalazin-1-yl)spiro[3.3]heptan-2-yl]-2,3-dihydro-1H-indene-2-carboxamide]
100 to 2100 nM | CN(C)c1ccc(C(=O)NC2CC3(C2)CC(c2n[nH]c(=O)c4ccccc24)C3)cc1 (stereo not shown) [Example 2, 4-(dimethylamino)-N-[6-(4-oxo-3,4-dihydrophthalazin-1-yl)spiro[3.3]heptan-2-yl]benzamide]
100 to 2100 nM | O=C(Cc1cccc2ccccc12)NC1CC2(C1)CC(c1n[nH]c(=O)c3ccccc13)C2 (stereo not shown) [Example 3, 2-(naphthalen-1-yl)-N-[6-(4-oxo-3,4-dihydrophthalazin-1-yl)spiro[3.3]heptan-2-yl]acetamide]
100 to 2100 nM | O=C(Cc1ccc2ccccc2c1)NC1CC2(C1)CC(c1n[nH]c(=O)c3ccccc13)C2 (stereo not shown) [Example 4, 2-(naphthalen-2-yl)-N-[6-(4-oxo-3,4-dihydrophthalazin-1-yl)spiro[3.3]heptan-2-yl]acetamide]
2.01 to 5 nM | Cn1nc(C(=O)NC2CC3(C2)CC(c2n[nH]c(=O)c4ccccc24)C3)c2ccccc21 (stereo not shown) [Example 5, 1-methyl-N-[6-(4-oxo-3,4-dihydrophthalazin-1-yl)spiro[3.3]heptan-2-yl]-1H-indazole-3-carboxamide]
100 to 2100 nM | O=C(CCc1ccccc1)NC1CC2(C1)CC(c1n[nH]c(=O)c3ccccc13)C2 (stereo not shown) [Example 6, N-[6-(4-oxo-3,4-dihydrophthalazin-1-yl)spiro[3.3]heptan-2-yl]-3-phenylpropanamide]
5.1 to 15 nM | O=C(NC1CC2(C1)CC(c1n[nH]c(=O)c3ccccc13)C2)c1ccn(CC(F)(F)F)n1 (stereo not shown) [Example 7, N-[6-(4-oxo-3,4-dihydrophthalazin-1-yl)spiro[3.3]heptan-2-yl]-1-(2,2,2-trifluoroethyl)-1H-pyrazole-3-carboxamide]
15.1 to 100 nM | Cc1nn(-c2ccccc2)cc1C(=O)NC1CC2(C1)CC(c1n[nH]c(=O)c3ccccc13)C2 (stereo not shown) [Example 8, 3-methyl-N-[6-(4-oxo-3,4-dihydrophthalazin-1-yl)spiro[3.3]heptan-2-yl]-1-phenyl-1H-pyrazole-4-carboxamide]
15.1 to 100 nM | CC(C)(C)n1cc(C(=O)NC2CC3(C2)CC(c2n[nH]c(=O)c4ccccc24)C3)cn1 (stereo not shown) [Example 9, 1-tert-butyl-N-[6-(4-oxo-3,4-dihydrophthalazin-1-yl)spiro[3.3]heptan-2-yl]-1H-pyrazole-4-carboxamide]
100 to 2100 nM | O=C(NC1CC2(C1)CC(c1n[nH]c(=O)c3ccccc13)C2)c1ccn(-c2ccccc2)n1 (stereo not shown) [Example 10, N-[6-(4-oxo-3,4-dihydrophthalazin-1-yl)spiro[3.3]heptan-2-yl]-1-phenyl-1H-pyrazole-3-carboxamide]
15.1 to 100 nM | CC(C)(O)Cn1nc(C(=O)NC2CC3(C2)CC(c2n[nH]c(=O)c4ccccc24)C3)c2ccccc21 (stereo not shown) [Example 11, 1-(2-hydroxy-2-methylpropyl)-N-[6-(4-oxo-3,4-dihydrophthalazin-1-yl)spiro[3.3]heptan-2-yl]-1H-indazole-3-carboxamide]

IC50 | SMILES
15.1 to 100 nM | O=C(NC1CC2(C1)CC(c1n[nH]c(=O)c3ccccc13)C2)c1cnn(-c2ccccc2)c1 (stereo not shown) [Example 12, N-[6-(4-oxo-3,4-dihydrophthalazin-1-yl)spiro[3.3]heptan-2-yl]-1-phenyl-1H-pyrazole-4-carboxamide]
2.01 to 5 nM | Cc1c(C(=O)NC2CC3(C2)CC(c2n[nH]c(=O)c4ccccc24)C3)cnn1-c1ccccc1 (stereo not shown) [Example 13, 5-methyl-N-[6-(4-oxo-3,4-dihydrophthalazin-1-yl)spiro[3.3]heptan-2-yl]-1-phenyl-1H-pyrazole-4-carboxamide]
100 to 2100 nM | O=C(N[C@H]1CC2(C1)C[C@H](c1n[nH]c(=O)c3ccccc31)C2)c1ccn(CC(F)F)n1 (stereo partly drawn) [Example 19, 1-(2,2-Difluoroethyl)-N-[(aR)-6-(4-oxo-3,4-dihydrophthalazin-1-yl)spiro[3.3]heptan-2-yl]-1H-pyrazole-3-carboxamide]
0.2 to 2 nM | Cc1c(C(=O)NC2CC3(C2)CC(c2n[nH]c(=O)c4ccccc24)C3)cnn1-c1ccccc1 [Example 20, 5-methyl-N-[(aR)-6-(4-oxo-3,4-dihydrophthalazin-1-yl)spiro[3.3]heptan-2-yl]-1-phenyl-1H-pyrazole-4-carboxamide]
5.1 to 15 nM | O=C(NC1CC2(C1)CC(c1n[nH]c(=O)c3ccccc13)C2)c1ccn(CCC(F)(F)F)n1 [Example 22, N-[(aR)-6-(4-oxo-3,4-dihydrophthalazin-1-yl)spiro[3.3]heptan-2-yl]-1-(3,3,3-trifluoropropyl)-1H-pyrazole-3-carboxamide]
5.1 to 15 nM | O=C(NC1CC2(C1)CC(c1n[nH]c(=O)c3ccccc13)C2)c1ccn(CC2CC2)n1 [Example 23, 1-(cyclopropylmethyl)-N-[(aR)-6-(4-oxo-3,4-dihydrophthalazin-1-yl)spiro[3.3]heptan-2-yl]-1H-pyrazole-3-carboxamide]
2.01 to 5 nM | Cn1nc(C2CC2)cc1C(=O)NC1CC2(C1)CC(c1n[nH]c(=O)c3ccccc13)C2 [Example 24, 3-cyclopropyl-1-methyl-N-[(aR)-6-(4-oxo-3,4-dihydrophthalazin-1-yl)spiro[3.3]heptan-2-yl]-1H-pyrazole-5-carboxamide]
5.1 to 15 nM | Cn1nc(C(F)(F)F)cc1C(=O)NC1CC2(C1)CC(c1n[nH]c(=O)c3ccccc13)C2 [Example 25, 1-methyl-N-[(aR)-6-(4-oxo-3,4-dihydrophthalazin-1-yl)spiro[3.3]heptan-2-yl]-3-(trifluoromethyl)-1H-pyrazole-5-carboxamide]
2.01 to 5 nM | Cn1nc(C(=O)NC2CC3(C2)CC(c2n[nH]c(=O)c4ccccc24)C3)cc1C1CC1 [Example 26, 5-cyclopropyl-1-methyl-N-[(aR)-6-(4-oxo-3,4-dihydrophthalazin-1-yl)spiro[3.3]heptan-2-yl]-1H-pyrazole-3-carboxamide]
5.1 to 15 nM | O=C(NC1CC2(C1)CC(c1n[nH]c(=O)c3ccccc13)C2)c1cnn(C2CC2)c1 [Example 27, 1-cyclopropyl-N-[(aR)-6-(4-oxo-3,4-dihydrophthalazin-1-yl)spiro[3.3]heptan-2-yl]-1H-pyrazole-4-carboxamide]
15.1 to 100 nM | Cn1nc(C(=O)NC2CC3(C2)CC(c2n[nH]c(=O)c4ccccc24)C3)cc1OC(F)F [Example 28, 5-(difluoromethoxy)-1-methyl-N-[(aR)-6-(4-oxo-3,4-dihydrophthalazin-1-yl)spiro[3.3]heptan-2-yl]-1H-pyrazole-3-carboxamide]
5.1 to 15 nM | O=C(NC1CC2(C1)CC(c1n[nH]c(=O)c3ccccc13)C2)c1ccn(C2CC2)n1 [Example 29, 1-cyclopropyl-N-[(aR)-6-(4-oxo-3,4-dihydrophthalazin-1-yl)spiro[3.3]heptan-2-yl]-1H-pyrazole-3-carboxamide]
15.1 to 100 nM | CC(C)(O)Cn1ccc(C(=O)NC2CC3(C2)CC(c2n[nH]c(=O)c4ccccc24)C3)n1 [Example 30, 1-(2-hydroxy-2-methylpropyl)-N-[(aR)-6-(4-oxo-3,4-dihydrophthalazin-1-yl)spiro[3.3]heptan-2-yl]-1H-pyrazole-3-carboxamide]
2.01 to 5 nM | CC(C)(O)Cn1nc(C(=O)NC2CC3(C2)CC(c2n[nH]c(=O)c4ccccc24)C3)c2ccc(F)cc21 [Example 31, 6-fluoro-1-(2-hydroxy-2-methylpropyl)-N-[(aR)-6-(4-oxo-3,4-dihydrophthalazin-1-yl)spiro[3.3]heptan-2-yl]-1H-indazole-3-carboxamide]
2.01 to 5 nM | Cc1nn(CC(F)F)cc1C(=O)NC1CC2(C1)CC(c1n[nH]c(=O)c3ccccc13)C2 [Example 32, 1-(2,2-difluoroethyl)-3-methyl-N-[(aR)-6-(4-oxo-3,4-dihydrophthalazin-1-yl)spiro[3.3]heptan-2-yl]-1H-pyrazole-4-carboxamide]
0.2 to 2 nM | Cc1nc(N2CCCCC2)sc1C(=O)N[C@H]1CC2(C1)C[C@H](c1n[nH]c(=O)c3ccccc31)C2 (stereo partly drawn) [Example 33, 4-Methyl-N-((aR)-6-(4-oxo-3,4-dihydrophthalazin-1-yl)spiro[3.3]heptan-2-yl)-2-(piperidin-1-yl)thiazole-5-carboxamide]
15.1 to 100 nM | Cc1nc(N2CCOCC2)sc1C(=O)NC1CC2(C1)CC(c1n[nH]c(=O)c3ccccc13)C2 [Example 34, 4-methyl-2-(morpholin-4-yl)-N-[(aR)-6-(4-oxo-3,4-dihydrophthalazin-1-yl)spiro[3.3]heptan-2-yl]-1,3-thiazole-5-carboxamide]

Source: patent publication US9902702B2, “Spirocycloheptanes as inhibitors of rock” (BRISTOL-MYERS SQUIBB COMPANY, priority 2014, dated 2018)
